Read-outs that look alike come from different tables or passages of the source.

For assay [1], the system named is MV4-11 cells. The experiment in a line: Oncology cell growth assay (3-day proliferation, CellTiter-Glo). It counts as cell-based. Particulars: Homo sapiens, AML cell line MV4-11, 72 hours, compounds grouped by IC50 range, read-out: MV4-11 IC50 (inhibition of proliferation, gIC50). The gist of the method: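 A 3-day proliferation test used MV4-11 cells seeded at 3000 per well with eight compound concentrations (10 μM top, 3-fold dilution) at 37° C in 5% CO2. CellTiter-Glo luminescence defined viable cell signal. A four-parameter logistic curve against DMSO and background wells gave the gIC50.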

The target of assay [2] is T1, BRD4 BD1 (Homo sapiens, UniProt O60885).
T1 construct: made in house
Kind of assay: AlphaScreen binding assay, BRD4 Bromodomain 1. A digest of the protocol:
(§1)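 An AlphaScreen competition format was used with His-BRD4 BD1 or BD2 and biotin-H4 K5/8/12/16-acetyl peptide, each at matched final levels of 50 nM (BD1) or 100 nM (BD2). Incubation in HEPES/NaCl buffer with 0.1% BSA and 0.01% Triton X-100 ran ≥1 h before IC50 determination.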
Background: Alpha assays give light when donor and acceptor beads are brought close together.

Assay [3] addresses T2, BRD4 BD2 (Homo sapiens, UniProt O60885).
T2 construct: made in house
Kind of assay: AlphaScreen binding assay, BRD4 Bromodomain 2. A digest of the protocol:
as §1

With `CC(=O)N1c2ccc(-c3cnn(C4CC4)c3)cc2N(C(=O)Oc2ccc3nc(C)ccc3c2)C[C@@H]1C` [Example I-513], the IC50 in assay [1] (MV4-11, 72 h) is below 100 nM; in assay [2] it was 100 to 1000 nM; in assay [3] it was 50 to 500 nM.

`CC(=O)N1c2ccc(-c3ccc(S(=O)(=O)CCO)cc3)cc2N(C(=O)c2ccco2)C[C@@H]1C` [Example I-423]: the IC50 in assay [1] (MV4-11, 72 h) fell in the range of 100 to 500 nM; in assay [2], 1000 to 10000 nM; in assay [3] it was 50 to 500 nM.

With `CC(=O)N1c2cc(NS(C)(=O)=O)c(-c3cnn(C4CC4)c3)cc2N(C(=O)OC(C)C)C[C@@H]1C` [Example I-213, Isopropyl (S)-4-acetyl-7-(1-cyclopropyl-1H-pyrazol-4-yl)-3-methyl-6-(methylsulfonamido)-3,4-dihydroquinoxaline-1(2H)-carboxylate], the IC50 in assay [1] (MV4-11, 72 h) is above 500 nM; in assay [2], above 10000 nM; in assay [3], above 500 nM.

As for `CC(=O)N1c2ccc(-c3ccc(F)c(S(C)(=O)=O)c3)cc2N(C(=O)OC(C)C)C[C@@H]1C` [Example I-1101], the IC50 in assay [1] (MV4-11, 72 h) was above 500 nM; in assay [2], 1000 to 10000 nM; in assay [3], 50 to 500 nM.

Regarding `CC(=O)N1c2ccc(-c3cnn(CC(F)F)c3)cc2N(C(=O)C2CC2)C[C@@H]1C` [Example I-651], the IC50 in assay [1] (MV4-11, 72 h) is above 500 nM; in assay [2] it was 100 to 1000 nM; in assay [3], 50 to 500 nM.

Consider `CC(=O)N1c2ccc(-c3ccc(S(N)(=O)=O)c(F)c3)cc2N(C(=O)C2CC2)C[C@@H]1C` [Example I-1297], for which the IC50 is above 500 nM in assay [1] (MV4-11, 72 h); 1000 to 10000 nM in assay [2]; 50 to 500 nM in assay [3].

With `CC(=O)N1c2ccc(-c3ccc(S(=O)(=O)CC(C)C)cc3)cc2N(C(=O)C2CC2)C[C@@H]1C` [Example I-1078], the IC50 in assay [1] (MV4-11, 72 h) is 100 to 500 nM; in assay [2], 1000 to 10000 nM; in assay [3], 50 to 500 nM.

For the compound `CC(=O)N1c2ccc(-c3cccc(S(=O)(=O)NCCO)c3)cc2N(C(=O)C2CCC2)C[C@@H]1C` [Example I-1109], the IC50 was above 500 nM in assay [1] (MV4-11, 72 h); 1000 to 10000 nM in assay [2]; 50 to 500 nM in assay [3].

As to `CC(=O)N1c2ccc(-c3ccc(C(=O)N4C[C@@H]5C[C@H]4CN5)cc3)cc2N(C(=O)OC(C)C)C[C@@H]1C` [Example I-593], the IC50 in assay [1] (MV4-11, 72 h) lay in the range of 100 to 500 nM; in assay [2], 100 to 1000 nM; in assay [3], 50 to 500 nM.

Turning to `CC(=O)N1c2ccc(-c3cccc(-c4ccccc4)c3)cc2N(C(=O)COc2ccccc2)C[C@@H]1C` [Example I-792], the IC50 was above 500 nM in assay [1] (MV4-11, 72 h); above 10000 nM in assay [2]; 50 to 500 nM in assay [3].

`COC(=O)N1c2ccc(-c3ccc(N4CCS(=O)(=O)CC4)cc3)cc2N(C(=O)C2CC2)C[C@@H]1C` [Example I-455]: the IC50 in assay [1] (MV4-11, 72 h) lay in the range of 100 to 500 nM; in assay [2], 100 to 1000 nM; in assay [3], 50 to 500 nM.

Turning to `CCN(CC)S(=O)(=O)c1cc(-c2ccc3c(c2)N(C(=O)C2CC2)C[C@H](C)N3C(C)=O)ccc1OC` [Example I-1112], the IC50 lay within 100 to 500 nM in assay [1] (MV4-11, 72 h); 1000 to 10000 nM in assay [2]; 50 to 500 nM in assay [3].

With `CC(=O)N1c2ccc(-c3cccc(NS(C)(=O)=O)c3)cc2N(C(=O)c2ccco2)C[C@@H]1C` [Example I-844], the IC50 in assay [1] (MV4-11, 72 h) is 100 to 500 nM; in assay [2], 100 to 1000 nM; in assay [3], below 50 nM.

Regarding `CC(=O)N1c2ccc(-c3ccc(N4CCCS4(=O)=O)cc3)cc2N(C(=O)OC(C)C)C[C@@H]1C` [Example I-469], the IC50 in assay [1] (MV4-11, 72 h) is 100 to 500 nM; in assay [2], 100 to 1000 nM; in assay [3] it was 50 to 500 nM.

For the compound `CC(=O)N1c2ccc(-c3ccc(N4CCCC4=O)cc3)cc2N(C(=O)OC2CCCCC2)C[C@@H]1C` [Example I-1267], the IC50 fell in the range of 100 to 500 nM in assay [1] (MV4-11, 72 h); 100 to 1000 nM in assay [2]; 50 to 500 nM in assay [3].

In the case of `CC(=O)N1c2ccc(-c3cnn(Cc4cc(C)on4)c3)cc2N(C(=O)C2CC2)C[C@@H]1C` [Example I-669], the IC50 in assay [1] (MV4-11, 72 h) was above 500 nM; in assay [2], 100 to 1000 nM; in assay [3] it was 50 to 500 nM.

Regarding `CC(=O)N1c2ccc(-c3cnn(C4CC4)c3)cc2N(C(=O)Oc2ccc(F)cc2)C[C@@H]1C` [Example I-261], the IC50 in assay [1] (MV4-11, 72 h) is 100 to 500 nM; in assay [2] it was 100 to 1000 nM; in assay [3], below 50 nM.

For `CC(=O)N1c2ccc(-c3cnn(CCC#N)c3)cc2N(C(=O)Oc2ccc(F)cc2)C[C@@H]1C` [Example I-1018], the IC50 in assay [1] (MV4-11, 72 h) was 100 to 500 nM; in assay [2], below 100 nM; in assay [3], below 50 nM.

For the compound `COC(=O)N1c2ccc(-c3cnn(C4CC4)c3)cc2N(C(=O)C2CC2)C[C@@H]1C` [Example I-42, (S)-methyl 4-(cyclopropanecarbonyl)-6-(1-cyclopropyl-1H-pyrazol-4-yl)-2-methyl-3,4-dihydroquinoxaline-1 (2H)-carboxylate], the results for the IC50 in assay [1], in assay [2] and in assay [3] were 100 to 500 nM, 100 to 1000 nM and 50 to 500 nM, respectively.

Take `CC(=O)N1c2ccc(-c3ccc(S(=O)(=O)NC(C)(C)C)cc3)cc2N(C(=O)OC(C)C)C[C@@H]1C` [Example I-1130]: the IC50 in assay [1] (MV4-11, 72 h) was 100 to 500 nM; in assay [2], 100 to 1000 nM; in assay [3] it was 50 to 500 nM.

For the compound `CC(=O)N1c2ccc(-c3ccc(NC(N)=O)cc3)cc2N(C(=O)c2ccco2)C[C@@H]1C` [Example I-280], the IC50 in assay [1] (MV4-11, 72 h) is 100 to 500 nM; in assay [2], 1000 to 10000 nM; in assay [3] it was below 50 nM.

With `CCOC(=O)N1C[C@H](C)N(C(C)=O)c2ccc(-c3cc(N4CCCS4(=O)=O)cc(C(F)(F)F)c3)cc21` [Example I-1165], the IC50 is above 500 nM in assay [1] (MV4-11, 72 h); 1000 to 10000 nM in assay [2]; 50 to 500 nM in assay [3].

Turning to `COc1ccccc1OC(=O)N1C[C@H](C)N(C(C)=O)c2ccc(-c3cnn(C4COC4)c3)cc21` [Example I-3, (S)-2-methoxyphenyl 4-acetyl-3-methyl-7-(1-(oxetan-3-yl)-1H-pyrazol-4-yl)-3,4-dihydroquinoxaline-1(2H)-carboxylate], the IC50 in assay [1] (MV4-11, 72 h) was below 100 nM; in assay [2], 100 to 1000 nM; in assay [3], 50 to 500 nM.

On to `CC(=O)N1c2cc(N)c(-c3cnn(C4CC4)c3)cc2N(C(=O)OC(C)C)C[C@@H]1C` [Example I-206, Isopropyl (S)-4-acetyl-6-amino-7-(1-cyclopropyl-1H-pyrazol-4-yl)-3-methyl-3,4-dihydroquinoxaline-1(2H)-carboxylate], for which the IC50 in assay [1] (MV4-11, 72 h) is 100 to 500 nM; in assay [2] it was 100 to 1000 nM; in assay [3], below 50 nM.

`CC(=O)N1c2ccc(-c3ccccc3F)cc2N(C(=O)COc2ccccc2)C[C@@H]1C` [Example I-794]: the IC50 was above 500 nM in assay [1] (MV4-11, 72 h); 1000 to 10000 nM in assay [2]; above 500 nM in assay [3].

Regarding `CC(=O)N1c2ccc(-c3ccc(N4CCCC4=O)cc3)cc2N(C(=O)C2CC2)C[C@@H]1C` [Example I-1131], the IC50 in assay [1] (MV4-11, 72 h) was 100 to 500 nM; in assay [2], 1000 to 10000 nM; in assay [3] it was 50 to 500 nM.

For the compound `CC(=O)N1c2ccc(-c3cnn(Cc4cccnc4)c3)cc2N(C(=O)C2CC2)C[C@@H]1C` [Example I-122, (S)-1-(4-(cyclopropanecarbonyl)-2-methyl-6-(1-(pyridin-3-ylmethyl)-1H-pyrazol-4-yl)-3,4-dihydroquinoxalin-1(2H)-yl)ethan-1-one], the IC50 in assay [1] (MV4-11, 72 h) is 100 to 500 nM; in assay [2] it was 100 to 1000 nM; in assay [3], below 50 nM.

As to `CC(=O)N1c2ccc(-c3ccc(S(C)(=O)=O)cc3)cc2N(C(=O)OC2CC(F)(F)C2)C[C@@H]1C` [Example I-5, (S)-3,3-difluorocyclobutyl 4-acetyl-3-methyl-7-(4-(methylsulfonyl)phenyl)-3,4-dihydroquinoxaline-1(2H)-carboxylate], the IC50 in assay [1] (MV4-11, 72 h) lay within 100 to 500 nM; in assay [2], 100 to 1000 nM; in assay [3], 50 to 500 nM.

For the compound `CC(=O)Nc1ccc2c(c1)N(C(C)=O)[C@@H](C)CN2C(=O)OC(C)C` [Example I-200, Isopropyl (S)-6-acetamido-4-acetyl-3-methyl-3,4-dihydroquinoxaline-1(2H)-carboxylate], the IC50 is above 500 nM in assay [1] (MV4-11, 72 h); 1000 to 10000 nM in assay [2]; 50 to 500 nM in assay [3].

Take `CC(=O)N1c2ccc(-c3ccc(S(=O)(=O)NCCO)cc3)cc2N(C(=O)C2CC2)C[C@@H]1C` [Example I-1035]: the IC50 in assay [1] (MV4-11, 72 h) was above 500 nM; in assay [2], 1000 to 10000 nM; in assay [3], 50 to 500 nM.

Consider `CC(=O)N1c2ccc(-c3cnn(CCO)c3)cc2N(C(=O)OC2CCC(F)(F)CC2)C[C@@H]1C` [Example I-34, (S)-4,4-difluorocyclohexyl 4-acetyl-7-(1-(2-hydroxyethyl)-1H-pyrazol-4-yl)-3-methyl-3,4-dihydroquinoxaline-1(2H)-carboxylate], for which the IC50 in assay [1] (MV4-11, 72 h) lay in the range of 100 to 500 nM; in assay [2], 100 to 1000 nM; in assay [3] it was 50 to 500 nM.

Regarding `CC(C)OC(=O)N1CC(C)N(C(=O)C2CC2)c2ccc(-c3cnn(Cc4c[nH]cn4)c3)cc21` (stereo not drawn) [Example I-616], the IC50 in assay [1] (MV4-11, 72 h) lay in the range of 100 to 500 nM; in assay [2] it was 100 to 1000 nM; in assay [3], 50 to 500 nM.

For `CC(=O)N1c2ccc(-c3cnn(CCC#N)c3)cc2N(C(=O)OC(C)C)C[C@@H]1C` [Example I-679], the IC50 in assay [1] (MV4-11, 72 h) lay in the range of 100 to 500 nM; in assay [2], 100 to 1000 nM; in assay [3], 50 to 500 nM.

`CC(C)OC(=O)N1C[C@H](C)N(C(=O)C2CC2)c2ccc(-c3cnn(CC4CCOCC4)c3)cc21` [Example I-623]: the IC50 in assay [1] (MV4-11, 72 h) lay in the range of 100 to 500 nM; in assay [2], 100 to 1000 nM; in assay [3], 50 to 500 nM.

The record behind these values is patent publication US10703764B2, “Benzopiperazine compositions as BET bromodomain inhibitors” (FORMA Therapeutics, Inc., priority 2013, dated 2020).
